The values that follow come from patent US7186831B2, “5-halo-2-alkyl[1,2,4]triazolo[1,5-a]pyrimidin-7-amines” (priority 2001, dated 2007).

One may read the logP as the decadic logarithm of the partition coefficient of the neutral form, usually between octanol and water. A lower logP goes with lower lipophilicity.

A short description of this data set: log P by HPLC. It is filed as physicochemical.
Where [1] appears, read: HPLC, gradient method, acetonitrile/0.1% aqueous phosphoric acid, EEC directive 79/831 Annex V. A8.
[2] abbreviates: EEC directive 79/831 Annex V. A8 by HPLC (gradient method, acetonitrile/0.1% aqueous phosphoric acid).

`CCCN(CCOC)c1c(-c2ccc(F)cc2F)c(Cl)nc2nc(C)nn12` [compound 209]: under setting [1], the logP came to 3.26. Under setting [1], `CCCCN(C)c1c(-c2ccc(F)cc2F)c(Cl)nc2nc(C3CC3)nn12` [compound 671] returned a logP of 4.21. On the same count and under the same terms, with `COCCN(C)c1c(-c2ccccc2Cl)c(Cl)nc2nc(C)nn12` [compound 222] the figure was 2.64. In turn, `Cc1nc2nc(Cl)c(-c3ccccc3F)c(NCC3CC3)n2n1` [compound 393] displayed a lipophilicity (logP) under setting [2] of 2.72.

Consider `CCN(Cc1ccco1)c1c(-c2ccc(F)cc2F)c(Cl)nc2nc(C3CC3)nn12` [compound 592], for which the logP under setting [1] was determined as 3.97. The molecule `Cc1nc2nc(Cl)c(-c3c(F)cccc3F)c(N3CCCC3)n2n1` [compound 170] showed a logP under setting [1] of 2.61. On the same count and under the same terms, with `CC(=O)NC1CCN(c2c(-c3ccc(F)cc3F)c(Cl)nc3nc(C(F)(F)F)nn23)CC1` [compound 806] the figure was 2.71. Consider `Cc1nc2nc(Cl)c(-c3c(F)cccc3Cl)c(N3CCC(O)C3)n2n1` (stereo not drawn) [compound 278], for which, under setting [2], the logP is on record as 2.02. Regarding `CC(C)Nc1c(-c2ccc(F)cc2F)c(Cl)nc2nc(C3CC3)nn12` [compound 651], under setting [1], the logP was 3.2. As for `Cc1nc2nc(Cl)c(-c3ccc(F)cc3Cl)c(NC(C)C(F)(F)F)n2n1` (racemic) [compound 640], the logP under setting [1] was 3.19. Same read-out and setting: with `COC(=O)C1CCCCN1c1c(-c2ccc(F)cc2F)c(Cl)nc2nc(C3CC3)nn12` (stereo not drawn) [compound 733] the figure was 3.92; with `CCN(CCOC)c1c(-c2ccc(F)cc2F)c(Cl)nc2nc(C3CC3)nn12` [compound 594], 3.46. `FC(F)(F)CNc1c(-c2ccccc2Cl)c(Cl)nc2nc(C3CC3)nn12` [compound 500]: the logP under setting [2] is listed as 3.22. On to `C=C(C)CN(C)c1c(-c2ccccc2Cl)c(Cl)nc2nc(C3CC3)nn12` [compound 496], for which the logP under setting [2] turned out to be 4.32. `Fc1ccc(-c2c(Cl)nc3nc(C4CC4)nn3c2N2CCOCC2)c(F)c1` [compound 518]: under setting [2], the logP is 2.85.

The molecule `Cc1nc2nc(Cl)c(-c3c(F)cccc3F)c(NC(C)(C)C(F)(F)F)n2n1` [compound 421] yielded a logP under setting [2] of 3.34. On to `CCN(CCOC)c1c(-c2c(F)cc(F)cc2F)c(Cl)nc2nc(C(F)(F)F)nn12` [compound 31], for which, under setting [1], the logP is on record as 4.04. With `Cc1nc2nc(Cl)c(-c3c(F)cccc3F)c(N3CCC(NC(=O)OC(C)(C)C)CC3)n2n1` [compound 321], the logP under setting [2] worked out at 3.15. `Cc1nc2nc(Cl)c(-c3c(F)cccc3F)c(N3CCCCC3)n2n1` [compound 171] had a logP under setting [1] of 3.17. The same measure, in the same setting: with `CCNc1c(-c2c(F)cc(F)cc2F)c(Cl)nc2nc(CC)nn12` [compound 91] the figure was 2.78; with `Cc1nc2nc(Cl)c(-c3ccccc3Cl)c(NC(C)C(C)C)n2n1` (stereo not drawn) [compound 696], 3.46. In the case of `Cc1nc2nc(Cl)c(-c3c(F)cccc3F)c(NCC(C)C)n2n1` [compound 328], under setting [2], the logP worked out at 2.85. Take `CCOC(=O)CN(CC)c1c(-c2ccccc2Cl)c(Cl)nc2nc(C)nn12` [compound 240]: under setting [1], the logP is 3.11.

In the case of `CC(C)(C)CNc1c(-c2c(F)cc(F)cc2F)c(Cl)nc2nc(C3CC3)nn12` [compound 461], the logP under setting [2] is given as 4.19.

In turn, `Cc1nc2nc(Cl)c(-c3c(F)cccc3Cl)c(NC3CCCC3)n2n1` [compound 255] returned a logP under setting [1] of 3.29. Still for that read-out and setting: as for `FC(F)(F)CNc1c(-c2ccc(Cl)cc2Cl)c(Cl)nc2nc(C3CC3)nn12` [compound 742], the figure is 3.72; as for `C=C(C)CN(CC)c1c(-c2ccccc2Cl)c(Cl)nc2nc(C)nn12` [compound 133], 3.9; as for `CCOC(=O)CN(C)c1c(-c2ccc(F)cc2F)c(Cl)nc2nc(C3CC3)nn12` [compound 717], 3.28. In the case of `Cc1nc2nc(Cl)c(-c3ccccc3Cl)c(N3CCCC3)n2n1` [compound 227], under setting [1], the logP is given as 0.75.

In turn, `C=C(C)CN(CC)c1c(-c2ccc(Cl)cc2Cl)c(Cl)nc2nc(C3CC3)nn12` [compound 769] yielded a logP under setting [1] of 5.25.

`Fc1cccc(F)c1-c1c(Cl)nc2nc(C3CC3)nn2c1NCC(F)(F)F` [compound 771]: the logP under setting [1] came to 3.04. Still for that read-out and setting: as for `CCc1nc2nc(Cl)c(-c3c(F)cc(F)cc3F)c(NCCOC)n2n1` [compound 78], the figure is 2.68; as for `CC(C)CN(C)c1c(-c2ccc(F)cc2Cl)c(Cl)nc2nc(C3CC3)nn12` [compound 627], 4.51; as for `Fc1ccc(-c2c(Cl)nc3nc(C4CC4)nn3c2N2CCC(Br)CC2)c(F)c1` [compound 732], 4.08. Still for that read-out and setting: with `CC(Nc1c(-c2ccc(F)cc2F)c(Cl)nc2nc(C3CC3)nn12)C1CCCCC1` (stereo not drawn) [compound 653] the figure was 4.84; with `CCONc1c(-c2c(F)cccc2F)c(Cl)nc2nc(C)nn12` [compound 136], 2.22.

The molecule `CCCN(CC1CCCCO1)c1c(-c2c(F)cccc2F)c(Cl)nc2nc(C)nn12` (stereo not drawn) [compound 346] yielded a logP under setting [2] of 3.95. Regarding `CN(C)c1c(-c2c(F)cc(F)cc2F)c(Cl)nc2nc(C(F)(F)F)nn12` [compound 100], the logP under setting [1] was determined as 3.6. For `C=C(C)CNc1c(-c2ccc(F)cc2F)c(Cl)nc2nc(C3CC3)nn12` [compound 657], the logP under setting [1] came to 3.22.

Take `CC(=O)NC1CCN(c2c(-c3c(F)cccc3F)c(Cl)nc3nc(C)nn23)CC1` [compound 323]: under setting [2], the logP is on record as 1.78. The same measure, in the same setting: as for `CC1=CCCN(c2c(-c3ccc(F)cc3F)c(Cl)nc3nc(C4CC4)nn23)C1` [compound 512], the figure is 4.14.

`Cc1nc2nc(Cl)c(-c3c(F)cccc3F)c(NC3CCCCC3)n2n1` [compound 186] returned a logP under setting [1] of 3.28. As to `CC(C)C(C)Nc1c(-c2ccc(Cl)cc2Cl)c(Cl)nc2nc(C3CC3)nn12` (single isomer, unassigned) [compound 759], the logP under setting [1] is 4.72. Consider `Cc1nc2nc(Cl)c(-c3c(F)cc(F)cc3F)c(NC3CC3)n2n1` [compound 65], for which the logP under setting [1] worked out at 2.51. Still for that read-out and setting: as for `CC1CCCN1c1c(-c2ccc(F)cc2F)c(Cl)nc2nc(C3CC3)nn12` (stereo not drawn) [compound 604], the figure is 3.76; as for `CCOC(=O)CN(C)c1c(-c2c(F)cc(F)cc2F)c(Cl)nc2nc(C)nn12` [compound 150], 2.8.

`COCCN(C)c1c(-c2c(F)cccc2F)c(Cl)nc2nc(C)nn12` [compound 336] had a logP under setting [2] of 2.45. On the same count and under the same terms, with `Cc1nc2nc(Cl)c(-c3c(F)cccc3Cl)c(N(C)CC(C)C)n2n1` [compound 276] the figure was 3.68. Under setting [1], `CC(Nc1c(-c2ccc(F)cc2Cl)c(Cl)nc2nc(C3CC3)nn12)C(F)(F)F` (single isomer, unassigned) [compound 767] registered a logP of 3.73. Same read-out and setting: as for `CCc1nc2nc(Cl)c(-c3c(F)cc(F)cc3F)c(N3CCCCC3C(F)(F)F)n2n1` (stereo not drawn) [compound 94], the figure is 4.27. Consider `Cc1nc2nc(Cl)c(-c3c(F)cccc3F)c(NOCc3ccc(F)cc3)n2n1` [compound 432], for which, under setting [2], the logP is recorded as 2.9.

Turning to `Fc1ccc(-c2c(Cl)nc3nc(C4CC4)nn3c2NC2CC2)c(F)c1` [compound 655], the logP under setting [1] is reported as 2.95. On to `Cc1nc2nc(Cl)c(-c3ccccc3F)c(NOCC(C)C)n2n1` [compound 361], for which the logP under setting [2] is on record as 2.98.

Consider `CC1CCCN1c1c(-c2c(F)cccc2F)c(Cl)nc2nc(C3CC3)nn12` (stereo not drawn) [compound 678], for which, under setting [1], the logP is recorded as 3.68.
